We go through one compound from article PMC6514705, “QuinoxalineTacrine QT78, a Cholinesterase Inhibitor as a Potential Ligand for Alzheimer’s Disease Therapy” (Molecules, 2019).

A short description of one series: in vitro. Format: cell-based. The note with it: human. As for the experimental part:
The human hepatoma HepG2 cell line was kindly provided by the IdiPAZ Institute for Health Research (Madrid, Spain). They were cultured in Eagle´s minimum essential medium (EMEM) supplemented with 15 nonessential amino acids, 1 mM sodium pyruvate, 10 % heat-inactivated FBS, 100 units/mL penicillin, and 100 µg/mL streptomycin (reagents from Invitrogen, Madrid, Spain). […] Culture media were changed every 2 days. […] For assays, cells were subcultured in 96-well plates at a seeding density of 1 × 10^5 cells per well.
MTT reduction was performed as described for both HepG2 and SH-SY5Y human cell lines. Briefly, 50 µL of the MTT labeling reagent, at a final concentration of 0.5 mg/mL, was added. […] Colorimetric determination of MTT reduction was measured in an ELISA microplate reader at 540 nm. Non-treated cells were considered controls and were taken as 100% viability.

For series [1], the system named is SH-SY5Y cells. Briefly: Neuroprotection in SH-SY5Y cells against rotenone/oligomycin A (R/O) toxicity (MTT). It counts as cell-based, human. The note with it: 1 μM compound, compared with lower concentrations. The protocol:
(§1) Finally, following the protocols described in the Supporting Information, we evaluated the neuroprotective profile of QT78 against two toxic insults related to neurodegeneration, using melatonin (10 nM) as a reference compound: (a) a model of reactive oxygen species (ROS) generation, based on the cocktail of the mitochondrial respiratory chain blockers rotenone and oligomycin A (R/O), and (b) hyperphosphorylation of tau protein using okadaic acid (OA), a well-known protein phosphatase inhibitor.
(§2) Human SH-SY5Y cells were maintained in a 1:1 mixture of Nutrient Mixture F-12 and Eagle´s minimum essential medium (EMEM) supplemented with 15 nonessential amino acids, 1 mM sodium pyruvate, 10% heat-inactivated FBS, 100 units/mL penicillin, and 100 μg/mL streptomycin. Cultures were seeded into flasks containing supplemented medium and maintained at 37 °C in a humidified atmosphere of 5% CO2 and 95% air. For assays, SH-SY5Y cells were sub-cultured in 96-well plates at a seeding density of 5 × 10^4 cells per well for 2 days. […]
(§3) MTT reduction was performed as described for both HepG2 and SH-SY5Y human cell lines. […] Colorimetric determination of MTT reduction was measured in an ELISA microplate reader at 540 nm. […]

The target in the next series is T1, BuChE from human serum (Homo sapiens, UniProt P06276).
T1 construct: BuChE from human serum (Sigma-Aldrich, Milan, Italy); purchased Sigma-Aldrich, Milan, Italy; host or cells: human serum
T1 sequence (P06276 29-602): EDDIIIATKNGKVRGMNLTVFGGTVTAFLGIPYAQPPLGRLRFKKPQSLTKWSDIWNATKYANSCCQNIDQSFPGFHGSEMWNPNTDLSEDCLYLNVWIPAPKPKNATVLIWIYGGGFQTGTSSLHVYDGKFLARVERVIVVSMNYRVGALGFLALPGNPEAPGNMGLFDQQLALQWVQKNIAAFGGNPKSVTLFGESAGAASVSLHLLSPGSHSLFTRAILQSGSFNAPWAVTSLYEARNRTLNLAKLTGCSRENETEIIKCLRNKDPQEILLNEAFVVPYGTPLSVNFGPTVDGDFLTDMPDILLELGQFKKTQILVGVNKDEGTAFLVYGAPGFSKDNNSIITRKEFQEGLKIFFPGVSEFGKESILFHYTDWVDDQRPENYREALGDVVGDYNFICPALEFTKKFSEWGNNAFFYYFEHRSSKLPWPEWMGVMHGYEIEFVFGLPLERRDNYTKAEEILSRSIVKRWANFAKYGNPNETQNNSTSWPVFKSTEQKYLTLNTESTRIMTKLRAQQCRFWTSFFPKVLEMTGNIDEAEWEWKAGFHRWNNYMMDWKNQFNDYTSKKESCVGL
The series is described as follows: Inhibition of human BuChE (Ellman's assay). Format: biochemical. The note with it: 20 min preincubation at 37 °C, pH 8.0, read-out: IC50 (hBuChE). The protocol:
(§4) Next, the in vitro inhibition of human acetylcholinesterase (hAChE) and human butyrylcholinesterase (hBuChE) was assessed according to the method of Ellman
(§5) The ability of QT78 to inhibit human ChE activity was assessed using Ellman’s assay. A Jasco V-530 double beam spectrophotometer connected to a HAAKE DC30 thermostating system (Thermo Haake, Vreden, Germany) was used. […] Either 50 µL of a solution of the tested compound at increasing concentrations or 50 µL of solvent (methanol or water) were added to the assay solution and preincubated at 37 °C with the enzyme for 20 min before the addition of substrate. […] In parallel, blanks containing all components except the enzyme were prepared to account for the non-enzymatic hydrolysis of the substrate. The reaction rates were compared and the percentage of inhibition due to the presence of test compound was calculated. Each concentration was analyzed in duplicate/triplicate. The percentage of inhibition of the enzyme activity due to the presence of inhibitor was calculated. Inhibition plots were obtained for each compound by plotting the percentage of inhibition versus the logarithm of inhibitor concentration in the assay solution. The linear regression parameters were determined for each curve and the IC50 extrapolated.
On the technique in general: Ellman's reagent forms a yellow product with free thiols.

Series [2] concerns SH-SY5Y cells. Briefly: Neuroprotection in SH-SY5Y cells against okadaic acid (OA) toxicity (MTT). The note with it: 1 μM compound, compared with lower concentrations. It counts as cell-based, human. The protocol: as §1, §2, §3
Another series addresses T2, human recombinant AChE (Homo sapiens, UniProt P22303).
T2 construct: purchased Sigma-Aldrich, Milan, Italy
The series is described as follows: Inhibition of human AChE (Ellman's assay). Format: biochemical. The following applies: 20 min preincubation at 37 °C, pH 8.0, read-out: IC50 (hAChE). The protocol:
as §4, §5

T2 sequence (P22303 32-614): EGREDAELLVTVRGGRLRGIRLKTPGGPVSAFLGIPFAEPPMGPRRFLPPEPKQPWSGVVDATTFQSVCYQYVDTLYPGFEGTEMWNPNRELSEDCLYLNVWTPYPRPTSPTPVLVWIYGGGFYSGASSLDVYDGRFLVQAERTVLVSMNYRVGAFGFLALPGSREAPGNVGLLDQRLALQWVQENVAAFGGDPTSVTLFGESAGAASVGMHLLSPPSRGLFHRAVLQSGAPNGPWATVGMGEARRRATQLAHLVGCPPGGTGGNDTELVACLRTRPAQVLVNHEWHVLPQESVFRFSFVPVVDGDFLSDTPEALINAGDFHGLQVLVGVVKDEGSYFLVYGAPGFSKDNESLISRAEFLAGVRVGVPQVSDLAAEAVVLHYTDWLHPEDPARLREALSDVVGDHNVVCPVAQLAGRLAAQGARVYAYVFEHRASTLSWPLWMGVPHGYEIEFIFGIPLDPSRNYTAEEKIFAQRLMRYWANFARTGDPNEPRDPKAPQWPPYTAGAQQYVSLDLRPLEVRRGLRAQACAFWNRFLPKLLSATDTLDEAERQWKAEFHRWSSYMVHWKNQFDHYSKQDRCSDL

As to `Nc1c2c(nc3nc4ccccc4nc13)CCCC2` [QT78, 1,2,3,4-tetrahydroquinolino[2,3-b]quinoxalin-12-amine], in the series “in vitro”, the viability (commonly a read-out of living cells in per cent, often relative to untreated cells) at 24 h, 1 µM is 96.7 ± 2.14%; the viability at 24 h, 3 µM came to 97.6 ± 2.2%; the viability at 24 h, 10 µM is 97.1 ± 1.64%; the viability at 24 h, 30 µM is 95.1 ± 1.5%. Moreover, in the series “in vitro”, the viability at 24 h, 100 µM was 90.5 ± 1.86%; the viability at 24 h, 300 µM was found to be 78.1 ± 0.94%; the viability at 24 h, 1000 µM worked out at 68.3 ± 2.92%. Also, the “protective capacity against R/O” value in the series with SH-SY5Y cells [1] is on record as “the protective capacity decreased”. Also, on BuChE from human serum, the IC50 – broadly, the concentration that inhibits the measured activity by half – was determined as 6.79 ± 0.33 µM. In addition, in the series with SH-SY5Y cells [2], the “protective capacity against OA” value is “the protective capacity decreased”. Besides, at human recombinant AChE, the IC50 was 22 ± 1.3 µM.
